ChEMBL document CHEMBL3885861, “Open TG-GATES”

Species on record: Rattus norvegicus
Test: Open TG-GATES - Regimen: Daily Repeat
Type: toxicity, organism-based, Sprague-Dawley
Set-up: regimen Daily Repeat, gender Male, age 6 weeks
Conditions: in vivo, po, 100 mg/kg, route gavage, dose level Low; for APTT / Bas / Eos / Fbg / Hb / Ht / Lym / MCH / MCHC / MCV / Mono / Neu / PT / Plat / RBC / Ret / WBC: tissue Blood; for KIDNEY_L / KIDNEY_R / KIDNEY_TOTAL: tissue Kidney; for LIVER: tissue Liver; for A/G / ALP / ALT / AST / BUN / CRE / Ca / Cl / DBIL / GLC / IP / K / LDH / Na / PL / RALB / TBIL / TC / TG / TP / gamma-GTP: tissue Plasma

## CN/C(=N/CCSCc1nc[nH]c1C)NC#N [CIMETIDINE]
72 h, time 3 day
  TERMINAL_BW: 228.3 g
  APTT: 18 s
  Bas: 0.2%
  Eos: 1%
  Fbg: 220 mg/dL
  Hb: 12.8 g/dL
  Ht: 38.6%
  Lym: 77.6%
  MCH: 21.1 pg
  MCHC: 33.2%
  MCV: 63.6 fL
  Mono: 2.6%
  Neu: 17.4%
  PT: 12.6 s
  Plat: 127.7 x10_4/uL
  RBC: 607 x10_4/ul
  Ret: 6.9%
  WBC: 97.9 x10_2/uL
  KIDNEY_L: 1 g
  KIDNEY_R: 1 g
  KIDNEY_TOTAL: 2 g
  LIVER: 10.7 g
  A/G: 1.5
  ALP: 1125.6 IU/L
  ALT: 37 IU/L
  AST: 66.4 IU/L
  BUN: 14.8 mg/dL
  CRE: 0.4 mg/dL
  Ca: 10.9 mg/dL
  Cl: 103.2 meq/L
  DBIL: 0.1 mg/dL
  GLC: 195.6 mg/dL
  IP: 7.1 mg/dL
  K: 4.2 meq/L
  LDH: 137.8 IU/L
  Na: 140.8 meq/L
  PL: 155.8 mg/dL
  RALB: 3.4 g/dL
  TBIL: 0.2 mg/dL
  TC: 78.6 mg/dL
  TG: 109.8 mg/dL
  TP: 5.6 g/dL
  gamma-GTP: 1.2 IU/L
[…], time 7 day
  TERMINAL_BW: 260 g
  APTT: 18.3 s
  Bas: 0.2%
  Eos: 0.8%
  Fbg: 227.6 mg/dL
  Hb: 13.5 g/dL
  Ht: 40.3%
  Lym: 81.6%
  MCH: 20.8 pg
  MCHC: 33.4%
  MCV: 62.2 fL
  Mono: 2%
  Neu: 14.6%
  PT: 12.2 s
  Plat: 126 x10_4/uL
  RBC: 648.2 x10_4/ul
  Ret: 5.4%
  WBC: 111.1 x10_2/uL
  KIDNEY_L: 1.1 g
  KIDNEY_R: 1.1 g
  KIDNEY_TOTAL: 2.2 g
  LIVER: 13 g
  A/G: 1.5
  ALP: 831 IU/L
  ALT: 34.8 IU/L
  AST: 64.2 IU/L
  BUN: 16.6 mg/dL
  CRE: 0.4 mg/dL
  Ca: 10.7 mg/dL
  Cl: 102 meq/L
  DBIL: 0.096 mg/dL
  GLC: 252.8 mg/dL
  IP: 7.8 mg/dL
  K: 4 meq/L
  LDH: 155 IU/L
  Na: 139.6 meq/L
  PL: 161 mg/dL
  RALB: 3.3 g/dL
  TBIL: 0.1 mg/dL
  TC: 78.8 mg/dL
  TG: 121 mg/dL
  TP: 5.6 g/dL
  gamma-GTP: 1.2 IU/L
[…], time 14 day
  TERMINAL_BW: 308.9 g
  APTT: 19.3 s
  Bas: 0%
  Eos: 1%
  Fbg: 219.2 mg/dL
  Hb: 14.4 g/dL
  Ht: 43.9%
  Lym: 83.8%
  MCH: 19.5 pg
  MCHC: 32.8%
  MCV: 59.5 fL
  Mono: 2.2%
  Neu: 13%
  PT: 12.7 s
  Plat: 120.2 x10_4/uL
  RBC: 737.8 x10_4/ul
  Ret: 3.9%
  WBC: 93.7 x10_2/uL
  KIDNEY_L: 1.2 g
  KIDNEY_R: 1.3 g
  KIDNEY_TOTAL: 2.5 g
  LIVER: 13.9 g
  A/G: 1.4
  ALP: 969.6 IU/L
  ALT: 42 IU/L
  AST: 74.8 IU/L
  BUN: 17.6 mg/dL
  CRE: 0.4 mg/dL
  Ca: 10.5 mg/dL
  Cl: 102 meq/L
  DBIL: 0.1 mg/dL
  GLC: 205.2 mg/dL
  IP: 7.1 mg/dL
  K: 4 meq/L
  LDH: 210.8 IU/L
  Na: 141.4 meq/L
  PL: 142.2 mg/dL
  RALB: 3.4 g/dL
  TBIL: 0.2 mg/dL
  TC: 62.8 mg/dL
  TG: 137.8 mg/dL
  TP: 5.9 g/dL
  gamma-GTP: 0.8 IU/L
[…], time 28 day
  TERMINAL_BW: 402.8 g
  APTT: 19.7 s
  Bas: 0.2%
  Eos: 1.2%
  Fbg: 217.4 mg/dL
  Hb: 14.6 g/dL
  Ht: 42.3%
  Lym: 79.4%
  MCH: 19.2 pg
  MCHC: 34.5%
  MCV: 55.8 fL
  Mono: 2.8%
  Neu: 15.6%
  PT: 12.9 s
  Plat: 114 x10_4/uL
  RBC: 758.2 x10_4/ul
  Ret: 2.8%
  WBC: 137.9 x10_2/uL
  KIDNEY_L: 1.4 g
  KIDNEY_R: 1.4 g
  KIDNEY_TOTAL: 2.8 g
  LIVER: 17.6 g
  A/G: 1.4
  ALP: 672 IU/L
  ALT: 35.4 IU/L
  AST: 66.4 IU/L
  BUN: 18.6 mg/dL
  CRE: 0.6 mg/dL
  Ca: 10.3 mg/dL
  Cl: 101.6 meq/L
  DBIL: 0.1 mg/dL
  GLC: 264.2 mg/dL
  IP: 6.9 mg/dL
  K: 3.5 meq/L
  LDH: 186 IU/L
  Na: 140.4 meq/L
  PL: 150.8 mg/dL
  RALB: 3.5 g/dL
  TBIL: 0.2 mg/dL
  TC: 70.2 mg/dL
  TG: 167.4 mg/dL
  TP: 6 g/dL
  gamma-GTP: 1.2 IU/L
